Test results as given in publication PMC9994133, “Substrate selectivity and inhibition of histidine JmjC hydroxylases MINA53 and NO66” (RSC Chemical Biology, 2023).
Square brackets hold non-standard residues; d marks the D form. Ends that are not written are not given here. Peptide text beside a SMILES is read from it. Aad = N[C@@H](CCCC(=O)O)C(=O)O

Assays:
[1] = biological target: T1, NO66 (Homo sapiens, UniProt Q9H6W3); test: NO66 inhibition assay by Rpl8 peptides (MALDI-TOF MS); type: biochemical; conditions: 10 μM 2OG; for IC50: 400 nM NO66, 10 nM to 250 μM inhibitor Rpl peptide, 100 μM L-ascorbic acid, 10 μM ferrous ammonium sulfate, 50 mM MES pH 7.0, Rpl8-His216 substrate, duplicate assays; for inhibition at 5 µM: 5 μM inhibitor Rpl8 peptide, 400 nM NO66, 100 μM LAA, 10 μM FAS, 50 mM MES pH 7.0, 10 min preincubation, then 5 μM Rpl8-His216 substrate, 2 hours, room temperature, duplicate
T1 construct: His6; made in house; host or cells: Escherichia coli BL21(DE3), pET-28b
T1 sequence (Q9H6W3 167-641): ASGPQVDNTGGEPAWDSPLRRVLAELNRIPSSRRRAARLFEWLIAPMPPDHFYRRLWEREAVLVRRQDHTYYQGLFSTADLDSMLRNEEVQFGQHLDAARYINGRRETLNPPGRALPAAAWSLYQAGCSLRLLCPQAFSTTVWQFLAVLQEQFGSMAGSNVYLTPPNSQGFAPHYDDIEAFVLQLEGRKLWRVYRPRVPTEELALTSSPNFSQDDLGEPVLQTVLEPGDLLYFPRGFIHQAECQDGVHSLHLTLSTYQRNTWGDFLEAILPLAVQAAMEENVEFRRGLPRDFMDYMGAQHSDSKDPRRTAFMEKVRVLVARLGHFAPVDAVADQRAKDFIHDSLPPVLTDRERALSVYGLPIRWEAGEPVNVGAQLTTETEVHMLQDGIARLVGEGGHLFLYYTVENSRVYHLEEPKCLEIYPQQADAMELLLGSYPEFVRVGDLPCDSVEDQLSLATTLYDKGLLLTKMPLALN
Protocol: (§1) Having shown that our Rpl peptides are not, at least efficient, ROX substrates, we explored them as inhibitors of the recombinant human ROXs using MALDI-TOF assays (Rpl8/27a-N^τ-Me, Rpl8/27a-N^π-Me, Rpl8/27a-1-TriaA, Rpl8/27a-4-TriaA and Rpl8/27a-TetrA were excluded from the panels for NO66 and MINA53, respectively, due to signal overlap between the two peptides in the assays). Synthetic Rpl peptides (5 or 50 μM) were incubated with MINA53/NO66 (400 nM), ferrous ammonium sulfate (10 μM) and 2OG (10 μM) for 10 minutes, after which time the Rpl27a-His39 and Rpl8-His216 substrates were added, respectively, and the reactions were carried out for 2 hours at room temperature (Fig. 4 and Fig. S9, ESI ^†).
(§2) IC50 values were determined for the peptides that manifested clear inhibition potency by varying the concentration of the Rpl peptide inhibitor from 10 nM to 250 μM (Fig. 5 and Table 1).
(§3) IC50 values for MINA53 inhibition by Rpl27a peptides and NO66 inhibition by Rpl8 peptides. Conditions: 400 nM MINA53/NO66, 10 nM to 250 μM inhibitor Rpl peptide, 100 μM L-ascorbic acid, 10 μM ferrous ammonium sulfate, 10 μM 2OG in 50 mM MES buffer (pH 7.0) for NO66 and 50 mM HEPES (pH 7.5) for MINA53
(§4) MINA53 and NO66 inhibition assays in the presence of Rpl27a31-49 and Rpl8_205-224 peptides, respectively, were performed under the following assay conditions: 400 nM MINA53/NO66, 5/50 μM inhibitor Rpl peptide, 100 μM LAA, 10 μM FAS, 10 μM 2OG in 50 mM MES buffer (pH 7.0) for NO66 and 50 mM HEPES buffer (pH 7.5) for MINA53.[24] After 10 minutes of preincubation 5 μM of substrate peptide was added and the reaction was incubated for 2 hours at room temperature. A positive control reaction containing enzyme and unmodified peptide substrate without any inhibitors was included. After 2 hours the reaction was stopped by addition of 20 μL of 10% (v/v) LC-MS grade formic acid (Fisher Scientific), mixed 1 : 1 with α-cyano-4-hydroxycinnamic acid (CHCCA) matrix dissolved in a mixture of H2O and MeCN (1 : 1, v/v), and loaded onto an MTP 384 polished steel target to be analyzed by MALDI-TOF MS. MINA53/NO66 residual activity was determined by calculating the relative integral of the […] peptide to a control reaction in absence of potential inhibitory peptides. Experiments were carried out in duplicate.
3. Inhibition supporting figure
Figure S9. Results from NO66 inhibition at A) 5 µM and B) 50 µM of Rpl8-based peptides. Error
bars are standard errors (SE) of duplicate analyses. […]

[2] = biological target: T2, MINA53 (Homo sapiens, UniProt Q8IUF8); test: MINA53 inhibition assay by Rpl27a peptides (MALDI-TOF MS); type: biochemical; conditions: 10 μM 2OG; for IC50: 400 nM MINA53, 10 nM to 250 μM inhibitor Rpl peptide, 100 μM L-ascorbic acid, 10 μM ferrous ammonium sulfate, 50 mM HEPES pH 7.5, Rpl27a-His39 substrate, duplicate assays
T2 construct: His6; made in house; host or cells: Escherichia coli BL21(DE3), pET-28b
Protocol: as §1
Fig. 4 Results for MINA53 inhibition at (a) 5 μM and (b) 50 μM by Rpl27a peptides. Error bars reported as standard errors (SE) carried out in duplicate. See Fig. 2 for analogue structures.
as §2, §3, §4

T2 sequence (Q8IUF8 26-464): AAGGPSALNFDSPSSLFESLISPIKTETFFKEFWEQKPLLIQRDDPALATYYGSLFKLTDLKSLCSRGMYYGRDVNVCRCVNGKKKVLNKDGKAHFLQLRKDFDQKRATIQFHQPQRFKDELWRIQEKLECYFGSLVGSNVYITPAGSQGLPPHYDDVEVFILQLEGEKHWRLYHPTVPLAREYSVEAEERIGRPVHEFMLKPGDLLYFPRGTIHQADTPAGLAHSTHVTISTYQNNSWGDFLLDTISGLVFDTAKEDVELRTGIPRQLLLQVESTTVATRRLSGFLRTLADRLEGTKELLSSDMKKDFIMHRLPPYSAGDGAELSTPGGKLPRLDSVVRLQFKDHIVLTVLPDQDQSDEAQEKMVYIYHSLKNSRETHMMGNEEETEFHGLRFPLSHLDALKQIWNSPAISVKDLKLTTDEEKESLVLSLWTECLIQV

Compound | IC50 [1] [nM] | inhibition at 5 µM [1] [%] | IC50 [2] [nM] | MINA53 inhibition at 5 μM (in words) ([2]; 5 μM inhibitor Rpl27a peptide, 400 nM MINA53, 100 μM LAA, 10 μM FAS, 50 mM HEPES pH 7.5, 10 min preincubation, then 5 μM Rpl27a-His39 substrate, 2 hours, room temperature, duplicate) | MINA53 inhibition at 50 μM (in words) ([2]; 50 μM inhibitor Rpl27a peptide, 400 nM MINA53, 100 μM LAA, 10 μM FAS, 50 mM HEPES pH 7.5, 10 min preincubation, then 5 μM Rpl27a-His39 substrate, 2 hours, room temperature, duplicate)
CC[C@H](C)[C@H](NC(=O)[C@H](Cc1c[nH]cn1)NC(=O)[C@H](CCC(N)=O)NC(=O)[C@H](CCCC(N)=O)NC(=O)[C@H](CC(N)=O)NC(=O)CNC(=O)CNC(=O)CNC(=O)[C@H](Cc1ccccc1)NC(=O)[C@@H]1CCCN1C(=O)[C@H](Cc1c[nH]cn1)NC(=O)[C@H](CCC(=O)O)NC(=O)[C@@H](NC(=O)[C@@H]1CCCN1C(=O)[C@@H](N)CC(N)=O)C(C)C)C(=O)NCC(=O)N[C@@H](CCCCN)C(=O)N1CCC[C@H]1C(=O)N[C@@H](CO)C(=O)N[C@H](C(N)=O)[C@@H](C)O [Rpl8-hGln216] (H-NPVEHPFGGGN[Aad](NH2)QHIGKPST-NH2; N-terminus assumed) | 11200 ± 400 | ~50 |  |  | 
GRGNAGGLNHHRINFDKYHP-NH2 [Rpl27a-Asn39] |  |  | 1020 ± 110 | displayed inhibition | strong inhibition
NPVEHPFGGGNNQHIGKPST-NH2 [Rpl8-Asn216] | 8860 ± 360 | ~50 |  |  | 

The remaining lines, values ahead:

IC50 [1] [nM] | inhibition at 5 µM [1] [%] | IC50 [2] [nM] | MINA53 inhibition at 5 μM (in words) ([2]; 5 μM inhibitor Rpl27a peptide, 400 nM MINA53, 100 μM LAA, 10 μM FAS, 50 mM HEPES pH 7.5, 10 min preincubation, then 5 μM Rpl27a-His39 substrate, 2 hours, room temperature, duplicate) | MINA53 inhibition at 50 μM (in words) ([2]; 50 μM inhibitor Rpl27a peptide, 400 nM MINA53, 100 μM LAA, 10 μM FAS, 50 mM HEPES pH 7.5, 10 min preincubation, then 5 μM Rpl27a-His39 substrate, 2 hours, room temperature, duplicate) | Compound
 |  | 1470 ± 270 |  |  | CC[C@H](C)[C@H](NC(=O)[C@H](CCCNC(=N)N)NC(=O)[C@H](Cc1c[nH]cn1)NC(=O)[C@H](Cc1c[nH]cn1)NC(=O)[C@H](CCCC(N)=O)NC(=O)[C@H](CC(C)C)NC(=O)CNC(=O)CNC(=O)[C@H](C)NC(=O)[C@H](CC(N)=O)NC(=O)CNC(=O)[C@H](CCCNC(=N)N)NC(=O)CN)C(=O)N[C@@H](CC(N)=O)C(=O)N[C@@H](Cc1ccccc1)C(=O)N[C@@H](CC(=O)O)C(=O)N[C@@H](CCCCN)C(=O)N[C@@H](Cc1ccc(O)cc1)C(=O)N[C@@H](Cc1c[nH]cn1)C(=O)N1CCC[C@H]1C(N)=O [Rpl27a-hGln39] (H-GRGNAGGL[Aad](NH2)HHRINFDKYHP-NH2)
 |  | 390 ± 160 |  |  | GRGNAGGLQHHRINFDKYHP-NH2 [Rpl27a-Gln39]
